Reference: patent publication US12121518B2, “PARP-1 and methods of use thereof” (The Board of Supervisors of Louisiana State University and …, priority 2017, dated 2024)
“Also recorded” adds a separate entry of the source.

What was measured:
MC-38 cell-based tumors = experiment: MC-38 cell-based syngeneic colon cancer mouse model; assay type: in vivo
From the text: Mice that received vehicle increased in size in a time-dependent manner and were sacrificed at day 16.
For the syngeneic tumor models, six to eight weeks old WT, PARP-1^+/−, or PARP-1^−/− mice were subcutaneously inoculated with 2.5×10^5 MC-38 cells. In some experiments, MC-38 cells transfected with p193-PGK-SB100X and pKT2PGK-BsdGFP_CLP-Luc plasmids (flanked by Sleeping Beauty transposons) and sorted by FACS. Selected cells were then engrafted onto mice as described above. When tumors became palpable (at day 4-6), WT mice were randomized and assigned to the different experimental groups. […] Tumor volumes were measured with a digital caliper or assessed using GFP/Luc-Biophotonic Imaging (Xenogen IVIS200, PerkinElmer, Boston, MA). Tumors were measured by the greatest longitudinal diameter (length) and the greatest transverse diameter (width) using a digital caliper. Tumor volumes were calculated using the following formula: tumor volume=(length×width^2)/2. For luciferase imaging, tumor-bearing mice received 150 mg/kg of D-luciferin potassium salt solution (PerkinElmer, Boston, MA) i.p. five minutes prior to anesthetic induction and imaging. Bioluminescence within a predetermined region of interest (ROI) on each mouse was quantified in photons/sec/cm^2/sr. At the end of the protocol (day 20-24), mice were sacrificed and tumors were harvested for further processing and analysis. For the adoptive transfer experiments, 3×10^6 BM-MDSCs derived from WT mice or vehicle were injected, intratumorally, into WT or PARP-1^+/− mice. The MDSCs were delivered at five injection sites at days 8 and 16 following engraftment of MC-38 cells.
Tissue processing, immunohistochemistry, immunofluorescence and cytokines measurement—Some tissues were fixed in buffered formalin (10%), paraffin-embedded, then sectioned. Serial sections were subjected to H&E staining, immunohistochemistry (IHC) or immunofluorescence, as described (33), with antibodies to PCNA (Novusbio, Littleton, CO), COX-2 (Santa Cruz Biotechnology, Santa Cruz, CA), ICAM-1 (Santa Cruz Biotechnology), CD8 (Santa Cruz Biotechnology), or Gr1 (eBioscience, San Diego, USA) as previously described (34). Some of the sections were subjected to immunofluorescence with antibodies to CD8 or Gr1. Blood, collected by cardiac puncture, was run through a Microtainer Serum Separator tube (BD, Franklin Lake, NJ). The collected sera were immediately stored at −80° C. for future use and analysis. Cytokine levels were assessed for TNF-α (ELM-TNFα-1), IL-6 (ELM-IL-6-1), and MCP-1 (ELM-MCP1) by ELISA (all from RayBiotech, Norcross, GA) according to the manufacturer's instructions and recommendations.

steroid-resistant asthma = experiment: Ovalbumin/LPS/IFNγ-based mouse model of steroid-resistant asthma; assay type: in vivo; conditions: 5 mg/kg
Protocol: (§1) Balb/c mice were sensitized by i.p. injection of 20 μg of Ova in 2.25 mg aluminium hydroxide on days 1 and 14. Steroid resistance was induced by intranasal instillation of Lps (10 μg/mouse) on day 27. Mice were treated with s.c injection of dexmethasone (5 mg/kg) on days 29 and 30. Mice were challenged with aerosolized 1% OVA on days 28, 29, 30 for 20 minutes. Airway hyper responsiveness was measured using plesthesmography 24 hours after the last OVA challenge. Statistics are not included.
as §1, with “Balb I c” for “Balb/c”, “µg/mouse)” for “μg/mouse)”, “All mice were euthanized 48” for “Airway hyper responsiveness was measured using plesthesmography 24”, “challenge then subjected to broncholaveolar lavage. Inflammatory cells were differentiated and assessed using Diff Quick staining.” for “challenge.”
as §1, with “All mice were euthanized 48” for “Airway hyper responsiveness was measured using plesthesmography 24”, “challenge. Cytokines were measured in the collected serum and BAL fluid using multiplex assay. And IgE production was assessed busing sandwich ELISA.” for “challenge.”
Objective: To investigate whether PARP inhibition could restore steroid sensitivity to block LPS/IFN-γ-induced neutrophilia and AHR in steroid-resistant asthma model of the disease. Methods: An ovalbumin/LPS/IFNγ-based model of steroid-resistant murine asthma and an airway epithelial cell culture system were used in this study.

SMILES: O=C(c1cc(Cc2n[nH]c(=O)c3ccccc23)ccc1F)N1CCN(C(=O)C2CC2)CC1 [olaparib]
- tumor size (MC-38 cell-based tumors; 0.2 mg/kg, WT mice, from palpable tumors): barely increased above the size the tumors at the day 5; also recorded: more effective at reducing the tumor burden
- tumor size (MC-38 cell-based tumors; 1 mg/kg, WT mice, from palpable tumors (day 6)): very effective at blocking tumor growth
- tumor size (MC-38 cell-based tumors; 5 mg/kg, WT mice, from palpable tumors): relatively smaller than those of WT; also recorded: significant reduction in the size of MC-38 cell-based tumors
- tumor progression (tumor volume) (MC-38 cell-based tumors; WT mice, olaparib 0.2 mg/kg on alternate days, anti-PD-1 100 μg/mouse every 4 days, alone or combined): significantly reduced the progression of MC-38 tumors
- intratumoral ICAM-1 immunoreactivity as a surrogate for inflammation (MC-38 cell-based tumors; both doses (0.2 and 5 mg/kg)): reduction in inflammation
- systemic inflammation (TNF-α, IL-6 and MCP-1 in sera) (MC-38 cell-based tumors; both doses (0.2 and 5 mg/kg)): moderately reduced
- OVA-specific IgE secretion in BALF and serum (steroid-resistant asthma): marked reduction in OVA-specific IgE secretion
- Th2 cytokine production (steroid-resistant asthma): marked reduction in Th2 cytokine production
- established steroid-resistant asthma manifestation (steroid-resistant asthma): reversed the established steroid-resistant asthma manifestation in mice
- infiltration of inflammatory cells into the airways (steroid-resistant asthma): blocked the infiltration of inflammatory cells into the airways
